Measurements from patent publication US20210047304A1, “Bromodomain Inhibitors” (AbbVie Inc., priority 2016, published 2021).
pKi: −log10 of the molar value.

molecular target: BRD4 (BDI_K57-E168) (Homo sapiens, UniProt O60885); test: TR-FRET bromodomain binding assay, BRD4 BDI

Row | pKi | SMILES
1 | 5.54 | Cc1cc(F)cc(C)c1Oc1ccc(C(C)(C)O)cc1-c1cn(C)c(=O)cc1O[C@H]1CC[C@H](N2CCCC2=O)CC1 [Example 24, 5-[2-(4-fluoro-2,6-dimethylphenoxy)-5-(2-hydroxypropan-2-yl)phenyl]-1-methyl-4-{[trans-4-(2-oxopyrrolidin-1-yl)cyclohexyl]oxy}pyridin-2(1H)-one]
2 | 5.90 | Cc1cccc(C)c1Oc1ccc(C(C)(C)O)cc1-c1cn(C)c(=O)cc1NC1CCN(C(=O)OC(C)(C)C)C1 (centres unmarked) [Example 11, tert-butyl 3-({5-[2-(2,6-dimethylphenoxy)-5-(2-hydroxypropan-2-yl)phenyl]-1-methyl-2-oxo-1,2-dihydropyridin-4-yl}amino)pyrrolidine-1-carboxylate]
3 | 5.78 | Cc1cc(F)cc(C)c1Oc1ccc(C(C)(C)O)cc1-c1cn(C)c(=O)cc1O[C@H]1C[C@@H](C(C)(C)O)C1 [Example 94, 5-[2-(4-fluoro-2,6-dimethylphenoxy)-5-(2-hydroxypropan-2-yl)phenyl]-4-{[cis-3-(2-hydroxypropan-2-yl)cyclobutyl]oxy}-1-methylpyridin-2(1H)-one]
4 | 6.14 | CC(=O)N[C@H]1C[C@H](Oc2cc(=O)n(C)cc2-c2cc(C(C)(C)O)ccc2Oc2c(C)cc(F)cc2C)C1 [Example 100, N-[trans-3-({5-[2-(4-fluoro-2,6-dimethylphenoxy)-5-(2-hydroxypropan-2-yl)phenyl]-1-methyl-2-oxo-1,2-dihydropyridin-4-yl}oxy)cyclobutyl]acetamide]
5 | 5.47 | Cc1cc(F)cc(C)c1Oc1ccc(C(C)(C)O)cc1-c1cn(C)c(=O)cc1O[C@H]1CC[C@H](NNC(=O)OC(C)(C)C)CC1 [Example 106, tert-butyl 2-[trans-4-({5-[2-(4-fluoro-2,6-dimethylphenoxy)-5-(2-hydroxypropan-2-yl)phenyl]-1-methyl-2-oxo-1,2-dihydropyridin-4-yl}oxy)cyclohexyl]hydrazine-1-carboxylate]
6 | 4.98 | CC(=O)NN[C@H]1CC[C@@H](Oc2cc(=O)n(C)cc2-c2cc(C(C)(C)O)ccc2Oc2c(C)cc(F)cc2C)CC1 [Example 99, N′-[cis-4-({5-[2-(4-fluoro-2,6-dimethylphenoxy)-5-(2-hydroxypropan-2-yl)phenyl]-1-methyl-2-oxo-1,2-dihydropyridin-4-yl}oxy)cyclohexyl]acetohydrazide]
7 | 5.74 | CC(=O)NC12CCC(C(=O)N[C@H]3CC[C@H](Oc4cc(=O)n(C)cc4-c4cc(C(C)(C)O)ccc4Oc4c(C)cc(F)cc4C)CC3)(C1)C2 (relative stereo) [Example 137, 4-acetamido-N-[trans-4-({5-[2-(4-fluoro-2,6-dimethylphenoxy)-5-(2-hydroxypropan-2-yl)phenyl]-1-methyl-2-oxo-1,2-dihydropyridin-4-yl}oxy)cyclohexyl]bicyclo[2.1.1]hexane-1-carboxamide]
8 | 5.44 | Cc1cc(F)cc(C)c1Oc1ccc(C(C)(C)O)cc1-c1cn(C)c(=O)cc1O[C@H]1CC[C@H](NC(=O)N2CCOCC2)CC1 [Example 122, N-[trans-4-({5-[2-(4-fluoro-2,6-dimethylphenoxy)-5-(2-hydroxypropan-2-yl)phenyl]-1-methyl-2-oxo-1,2-dihydropyridin-4-yl}oxy)cyclohexyl]morpholine-4-carboxamide]
9 | < 4.89 | Cc1cc(F)cc(C)c1Oc1ccc(C(C)(C)O)cc1-c1cn(C)c(=O)cc1O[C@H]1CC[C@H](n2cnccc2=O)CC1 [Example 144, 3-[trans-4-({5-[2-(4-fluoro-2,6-dimethylphenoxy)-5-(2-hydroxypropan-2-yl)phenyl]-1-methyl-2-oxo-1,2-dihydropyridin-4-yl}oxy)cyclohexyl]pyrimidin-4(3H)-one]
10 | 5.82 | Cc1cc(F)cc(C)c1Oc1ccc(C(C)(C)O)cc1-c1cn(C)c(=O)cc1O[C@H]1CC[C@H](N2C(=O)COC2=O)CC1 [Example 82, 3-[trans-4-({5-[2-(4-fluoro-2,6-dimethylphenoxy)-5-(2-hydroxypropan-2-yl)phenyl]-1-methyl-2-oxo-1,2-dihydropyridin-4-yl}oxy)cyclohexyl]-1,3-oxazolidine-2,4-dione]
11 | 4.94 | Cc1cc(F)cc(C)c1Oc1ccc(C(C)(C)O)cc1-c1cn(C)c(=O)cc1O[C@H]1CC[C@H](N2C(=O)CC(C)(C)C2=O)CC1 [Example 90, 1-[trans-4-({5-[2-(4-fluoro-2,6-dimethylphenoxy)-5-(2-hydroxypropan-2-yl)phenyl]-1-methyl-2-oxo-1,2-dihydropyridin-4-yl}oxy)cyclohexyl]-3,3-dimethylpyrrolidine-2,5-dione]
12 | < 4.89 | Cc1cc(F)cc(C)c1Oc1ccc(C(C)(C)O)cc1-c1cn(C)c(=O)cc1O[C@H]1CC[C@H](N2C(=O)c3ccccc3C2=O)CC1 [Example 43, 2-[trans-4-({5-[2-(4-fluoro-2,6-dimethylphenoxy)-5-(2-hydroxypropan-2-yl)phenyl]-1-methyl-2-oxo-1,2-dihydropyridin-4-yl}oxy)cyclohexyl]-1H-isoindole-1,3(2H)-dione]
13 | 4.89 | Cc1cc(F)cc(C)c1Oc1ccc(C(C)(C)O)cc1-c1cn(C)c(=O)cc1O[C@H]1CC[C@H](N2C(=O)[C@H]3CCCN3C2=O)CC1 [Example 138, (7aR)-2-[trans-4-({5-[2-(4-fluoro-2,6-dimethylphenoxy)-5-(2-hydroxypropan-2-yl)phenyl]-1-methyl-2-oxo-1,2-dihydropyridin-4-yl}oxy)cyclohexyl]tetrahydro-1H-pyrrolo[1,2-c]imidazole-1,3(2H)-dione]
14 | 5.75 | Cc1cc(F)cc(C)c1Oc1ccc(C(C)(C)O)cc1-c1cn(C)c(=O)cc1O[C@H]1CC[C@H](N2CCC(C)(C)C2=O)CC1 [Example 48, 4-{[trans-4-(3,3-dimethyl-2-oxopyrrolidin-1-yl)cyclohexyl]oxy}-5-[2-(4-fluoro-2,6-dimethylphenoxy)-5-(2-hydroxypropan-2-yl)phenyl]-1-methylpyridin-2(1H)-one]
15 | 6.11 | Cc1cc(F)cc(C)c1Oc1ccc(C(C)(C)O)cc1-c1cn(C)c(=O)cc1O[C@H]1CC[C@H](N2C(=O)C3CC3C2=O)CC1 (relative stereo) [Example 129, 3-[trans-4-({5-[2-(4-fluoro-2,6-dimethylphenoxy)-5-(2-hydroxypropan-2-yl)phenyl]-1-methyl-2-oxo-1,2-dihydropyridin-4-yl}oxy)cyclohexyl]-3-azabicyclo[3.1.0]hexane-2,4-dione]
16 | < 4.89 | Cc1cc(F)cc(C)c1Oc1ccc(C(C)(C)O)cc1-c1cn(C)c(=O)cc1O[C@H]1CC[C@H](NC(=O)C23CC(NC(=O)OC(C)(C)C)(C2)C3)CC1 (relative stereo) [Example 72, tert-butyl (3-{[trans-4-({5-[2-(4-fluoro-2,6-dimethylphenoxy)-5-(2-hydroxypropan-2-yl)phenyl]-1-methyl-2-oxo-1,2-dihydropyridin-4-yl}oxy)cyclohexyl]carbamoyl}bicyclo[1.1.1]pentan-1-yl)carbamate]
17 | 5.47 | Cc1cc(F)cc(C)c1Oc1ccc(C(C)(C)O)cc1-c1cn(C)c(=O)cc1O[C@H]1CC[C@H](N2C(=O)CCC2=O)CC1 [Example 44, 1-[trans-4-({5-[2-(4-fluoro-2,6-dimethylphenoxy)-5-(2-hydroxypropan-2-yl)phenyl]-1-methyl-2-oxo-1,2-dihydropyridin-4-yl}oxy)cyclohexyl]pyrrolidine-2,5-dione]
